SMILES strings stand for the structures.

For the assay, the target named is T1, human LPA1 (Homo sapiens, UniProt Q92633).
T1 construct: the full-length cDNA for human LPA1 was obtained by PCR of the reverse transcription reaction; expressed in transfected cells
T1 sequence (Q92633 whole entry): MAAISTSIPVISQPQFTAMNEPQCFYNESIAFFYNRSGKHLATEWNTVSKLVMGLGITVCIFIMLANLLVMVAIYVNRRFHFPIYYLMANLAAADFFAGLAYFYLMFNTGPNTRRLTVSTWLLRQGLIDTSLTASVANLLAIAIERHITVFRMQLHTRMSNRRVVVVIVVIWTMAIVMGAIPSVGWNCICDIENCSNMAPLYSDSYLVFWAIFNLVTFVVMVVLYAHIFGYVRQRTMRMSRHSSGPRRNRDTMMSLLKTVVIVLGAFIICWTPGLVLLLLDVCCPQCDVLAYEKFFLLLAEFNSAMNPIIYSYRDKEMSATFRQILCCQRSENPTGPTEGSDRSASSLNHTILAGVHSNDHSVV
In words: LPA1 calcium flux assay. The class given is cell-based. The note with it: CHO cells expressing human LPA1, stimulated with 10 nM LPA; read-out: HLPA1 Ca Flux IC50. A digest of the protocol: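 Antagonism measured as block of 10 nM LPA-evoked calcium rise in stable human LPA1-CHO cells. After overnight serum-free culture and 1 h dye loading at 37 °C (buffer with 0.3% fatty-acid-free albumin), compound was added for 30 min at room temperature. Titration curves gave IC50.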
Consider `Cc1noc(-c2ccc(-c3ccc(C4(CC(=O)O)CC4)cc3)cc2)c1NC(C)CCCO` (stereo not shown) [Compound 1-229, (1-{4′-[4-(4-Hydroxy-1-methyl-butylamino)-3-methyl-isoxazol-5-yl]-biphenyl-4-yl}-cyclopropyl)-acetic acid], for which the IC50 was over 50 µM.
Regarding `Cc1noc(-c2ccc(-c3ccc(C4(C(=O)O)CC4)cc3)cc2)c1C(O)CCCc1ccccc1` (single isomer, unassigned) [Compound 1-156, 1-{4′-[4-(1-Hydroxy-4-phenyl-butyl)-3-methyl-isoxazol-5-yl]-biphenyl-4-yl}-cyclopropanecarboxylic acid], the IC50 is under 0.3 µM.
For the compound `Cc1noc(-c2ccc(-c3ccc(C4(C(=O)O)CC4)cc3)cc2)c1NC1CCc2ccccc2C1` (stereo not shown) [Compound 1-270, 1-{4′-[3-Methyl-4-(1,2,3,4-tetrahydro-naphthalen-2-ylamino)-isoxazol-5-yl]-biphenyl-4-yl}-cyclopropanecarboxylic acid], the concentration for half-maximal inhibition (IC50) was under 0.3 µM.
Turning to `Cc1noc(-c2ccc(-c3ccc(C4(C(=O)O)CC4)cc3)cc2)c1CC(=O)N[C@@H]1CCc2ccccc21` [Compound 1-65, 1-{4′-[4-(Indan-1-ylcarbamoylmethyl)-3-methyl-isoxazol-5-yl]-biphenyl-4-yl}-cyclopropanecarboxylic acid], the IC50 was over 50 µM.
Consider `Cc1noc(-c2ccc(-c3ccc(C4(C(=O)O)CC4)cc3)cc2)c1NC(=O)NCC(F)(F)F` [Compound 1-13, 1-(4′-{3-Methyl-4-[3-(2,2,2-trifluoro-ethyl)-ureido]-isoxazol-5-yl}-biphenyl-4-yl)-cyclopropanecarboxylic acid], for which the IC50 is over 50 µM.
To `Cc1noc(-c2ccc(-c3ccc(C4(C(=O)O)CC4)cc3)cc2)c1CC(=O)N[C@H]1CCc2ccccc21` [Compound 1-99, 1-{4′-[4-((S)-Indan-1-ylcarbamoylmethyl)-3-methyl-isoxazol-5-yl]-biphenyl-4-yl}-cyclopropanecarboxylic acid] belongs under 0.3 µM.
To `Cc1noc(-c2ccc(-c3ccc(C4(C(=O)O)CC4)cc3)cc2)c1NC(=O)Nc1cccc(Br)c1` [Compound 1-308, 1-(4′-{4-[3-(3-Bromo-phenyl)-ureido]-3-methyl-isoxazol-5-yl}-biphenyl-4-yl)-cyclopropanecarboxylic acid] belongs under 0.3 µM; to `CCC(C(=O)O)c1ccc(-c2ccc(-c3onc(C)c3C(O)CCCc3ccccc3C(F)(F)F)cc2)cc1` (stereo not shown) [Compound 1-171, 2-(4′-{4-[1-Hydroxy-4-(2-trifluoromethyl-phenyl)-butyl]-3-methyl-isoxazol-5-yl}-biphenyl-4-yl)-butyric acid], 0.3 to 1 µM.
To `Cc1noc(-c2ccc(-c3ccc(CCC(=O)O)cc3)cc2)c1NC(C)CCc1cccc(C(F)(F)F)c1` (single isomer, unassigned) [Compound 1-234, 3-(4′-{3-Methyl-4-[1-methyl-3-(3-trifluoromethyl-phenyl)-propylamino]-isoxazol-5-yl}-biphenyl-4-yl)-propionic acid] belongs over 50 µM; to `Cc1noc(-c2ccc(-c3ccc(CC(=O)O)cc3)cc2)c1C(O)CSCc1cccc(C(F)(F)F)c1` (stereo not shown) [Compound 1-266, (4′-{4-[1-Hydroxy-2-(3-trifluoromethyl-benzylsulfanyl)-ethyl]-3-methyl-isoxazol-5-yl}-biphenyl-4-yl)-acetic acid], under 0.3 µM; to `Cc1noc(-c2ccc(-c3ccc(C4(C(=O)O)CC4)cc3)cc2)c1NS(=O)(=O)Cc1ccccc1Cl` [Compound 1-14, 1-{4′-[4-(2-Chloro-phenylmethanesulfonylamino)-3-methyl-isoxazol-5-yl]-biphenyl-4-yl}-cyclopropanecarboxylic acid], 0.3 to 1 µM.
On to `Cc1noc(-c2ccc(-c3ccc(C4(CC(=O)O)CC4)cc3)cc2)c1NC(C)CCc1ccc(Cl)cc1` (stereo not shown) [Compound 1-218, [1-(4′-{4-[3-(4-Chloro-phenyl)-1-methyl-propylamino]-3-methyl-isoxazol-5-yl}-biphenyl-4-yl)-cyclopropyl]-acetic acid], for which the IC50 was under 0.3 µM.
To `Cc1noc(-c2ccc(-c3ccc(C4(C(=O)O)CC4)cc3)cc2)c1NC(C)CCc1cccc(Cl)c1` (single isomer, unassigned) [Compound 1-240, 1-(4′-{4-[3-(3-Chloro-phenyl)-1-methyl-propylamino]-3-methyl-isoxazol-5-yl}-biphenyl-4-yl)-cyclopropanecarboxylic acid] belongs under 0.3 µM; to `Cc1noc(-c2ccc(-c3ccc(C4(CC(=O)O)CC4)cc3)cc2)c1NC(C)c1cc2ccccc2s1` (stereo not shown) [Compound 1-286, (1-{4′-[4-(1-Benzo[b]thiophen-2-yl-ethylamino)-3-methyl-isoxazol-5-yl]-biphenyl-4-yl}-cyclopropyl)-acetic acid], under 0.3 µM; to `Cc1noc(-c2ccc(-c3ccc(C4(C(=O)O)CC4)cc3)cc2)c1Nc1cncc(OC(C)C)c1` [Compound 1-310, 1-{4′-[4-(5-Isopropoxy-pyridin-3-ylamino)-3-methyl-isoxazol-5-yl]-biphenyl-4-yl}-cyclopropanecarboxylic acid], under 0.3 µM.
As to `Cc1noc(-c2ccc(-c3ccc(C4(C(=O)O)CC4)cc3)cc2)c1C(O)CN` (stereo not shown) [Compound 1-190, 1-{4′-[4-(2-Amino-1-hydroxy-ethyl)-3-methyl-isoxazol-5-yl]-biphenyl-4-yl}-cyclopropanecarboxylic acid], the IC50 is under 0.3 µM.
To `Cc1noc(-c2ccc(-c3ccc(C4(C(=O)O)CC4)cc3)cc2)c1CCS(=O)(=O)Cc1ccccc1` [Compound 1-85, 1-{4′-[3-Methyl-4-(2-phenylmethanesulfonyl-ethyl)-isoxazol-5-yl]-biphenyl-4-yl}-cyclopropanecarboxylic acid] belongs over 50 µM; to `Cc1noc(-c2ccc(-c3ccc(C4(C(=O)O)CC4)cc3)cc2)c1CCC(=O)N(C)C(C)(C)c1ccccc1` [Compound 1-118, 1-[4′-(3-Methyl-4-{2-[methyl-(1-methyl-1-phenyl-ethyl)-carbamoyl]-ethyl}-isoxazol-5-yl)-biphenyl-4-yl]-cyclopropanecarboxylic acid], 1 to 50 µM.
To `Cc1noc(-c2ccc(-c3ccc(C4(C(=O)O)CC4)cc3)cc2)c1NC(=O)COc1ccccc1` [Compound 1-5, 1-{4′-[3-Methyl-4-(2-phenoxy-acetylamino)-isoxazol-5-yl]-biphenyl-4-yl}-cyclopropanecarboxylic acid] belongs 1 to 50 µM; to `Cc1noc(-c2ccc(-c3cccc(CCC(=O)O)c3)cc2)c1C(O)CCCc1ccccc1` (stereo not shown) [Compound 1-200, 3-{4′-[4-(1-Hydroxy-4-phenyl-butyl)-3-methyl-isoxazol-5-yl]-biphenyl-3-yl}-propionic acid], under 0.3 µM.
To `Cc1noc(-c2ccc(-c3ccc(C4(C(=O)O)CC4)cc3)cc2)c1CC(=O)N[C@H]1c2ccccc2C[C@H]1O` [Compound 1-92, 1-(4′-{4-[((1S,2R)-2-Hydroxy-indan-1-ylcarbamoyl)-methyl]-3-methyl-isoxazol-5-yl}-biphenyl-4-yl)-cyclopropanecarboxylic acid] belongs 1 to 50 µM; to `Cc1noc(-c2ccc(-c3ccc(C4(C(=O)O)CC4)cc3)cc2)c1CCC(=O)N(C)C(C)c1ccccc1` (stereo in doubt) [Compound 1-117, 1-[4′-(3-Methyl-4-{2-[methyl-((R)-1-phenyl-ethyl)-carbamoyl]-ethyl}-isoxazol-5-yl)-biphenyl-4-yl]-cyclopropanecarboxylic acid], 1 to 50 µM.

The record behind these values is patent US9624182B2, “Compounds as lysophosphatidic acid receptor antagonists” (Amira Pharmaceuticals, Inc., priority 2009, dated 2017).
